Data reported in patent US9212209B2, “Screening methods for spinal muscular atrophy” (Indiana University Research and Technology Corporation, priority 2012, dated 2015).
Where two headings read alike, the source gives them in different places.

Tested on: SMN2-luciferase reporter
Experiment: SMN2-luciferase reporter assay (clonal HEK-293 SMN2-luc cells)
Type: cell-based, human
Details: for Emax: read-out: Max % Activity; for Max. fold increase: cell-based reporter response to known SMN2 modulating compounds
Method: The reporter cell lines were plated at 50,000 cells per well in 96-well plates and incubated overnight. Compounds were added to each well and incubated at 37° C. overnight. The final DMSO concentration was 0.1%. Luciferase activity was assayed using either STEADYGLO (PROMEGA E2510) or DUALGLO (PROMEGA E2920) luciferase using the WALLAC ENVISION multilabel reader. For detailed assay conditions see Table 2A. All data points were transformed from CPS to percent increase over basal expression in the treated control wells (DMSO or H2O as appropriate).
Plates were sealed with porous paper tape and incubated for 24 hours. […] For comparison, data points were transformed from CPS to percent activation over basal expression in the DMSO treated control wells.
For comparison, all data points are expressed as percent increase over basal luciferase expression in the control cells.

[1] = Homo sapiens, HEK293, reporter assay, Table 6, read-out: Ec50
[2] = Homo sapiens, HEK293, reporter assay, Table 6

In the case of Cc1cnc(NC(=O)c2ccc(F)c(Cl)c2)s1 [LDN-211985], the EC50 [1] is reported as 800 nM, the Emax [2] is reported as 150% and the Active (reporter assay, Table 6) is reported as “Yes”.
CC(C)c1nc(C(=O)Nc2ccc(F)c(Cl)c2)cs1 [LDN-211986] was tested, and the EC50 [1] was 1500 nM, the Emax [2] was 100% and the Active (reporter assay, Table 6) was “Yes”.
With CC(C)(C)c1coc(NC(=O)c2ccc(F)c(Cl)c2)n1 [LDN-211992] the EC50 [1] was 150 nM, the Emax [2] was 100% and the Active (reporter assay, Table 6) was “Yes”.
O=C(Nc1nc(-c2ccccc2)co1)c1ccc(F)c(Cl)c1 [LDN-212011] was tested, and the Active (reporter assay, Table 6) was “No”.
For CC(C)(C)c1c[nH]c(NC(=O)c2ccc(F)c(Cl)c2)n1 [LDN-212012], the Active (reporter assay, Table 6) was “No”.
In the case of O=C(Nc1nc(C2CCC2)cs1)c1ccc(F)c(Cl)c1 [LDN-212013], the EC50 [1] is reported as 500 nM, the Emax [2] is reported as 100% and the Active (reporter assay, Table 6) is reported as “Yes”.
For CC(C)c1nc(C(=O)Nc2ccc(F)c(Cl)c2)co1 [LDN-212015], the EC50 [1] was 1700 nM, the Emax [2] was 100% and the Active (reporter assay, Table 6) was “Yes”.
In the case of CC(C)(C)c1cc(=O)[nH]c(NC(=O)c2ccc(F)c(Cl)c2)n1 [LDN-212026], the Active (reporter assay, Table 6) is reported as “No”.
For CC(C)(O)c1cnc(NC(=O)c2ccc(F)c(Cl)c2)s1 [LDN-212255], the EC50 [1] was 400 nM, the Emax [2] was 117% and the Active (reporter assay, Table 6) was “Yes”.
With O=C(Nc1cc(C2(O)CCC2)ccn1)c1ccc(F)c(Cl)c1 [LDN-212256] the EC50 [1] was 400 nM, the Emax [2] was 114% and the Active (reporter assay, Table 6) was “Yes”.
COc1cc2c(c(OC)c1OC)C(c1cc(Br)ccc1F)CC(=O)N2C (stereo not shown) [LDN-212263] was tested, and the Active (reporter assay, Table 6) was “No”.
For COc1cc2c(c(OC)c1)C(c1cc(Br)ccc1F)CC(=O)N2 (stereo not shown) [LDN-212264], the Active (reporter assay, Table 6) was “No”.
In the case of COc1cc2[nH]c(=O)cc(-c3cc(Br)ccc3F)c2c(OC)c1OC [LDN-212265], the Active (reporter assay, Table 6) is reported as “No”.
With COc1cc2c(c(OC)c1OC)C(c1ccc(Cl)c(Cl)c1)CC(=O)N2 (stereo not shown) [LDN-212266] the Active (reporter assay, Table 6) was “No/Weak”.
In the case of COc1cc2c(c(OC)c1OC)C(c1cccc(-c3ccccc3)c1)CC(=O)N2 (stereo not shown) [LDN-212267], the Active (reporter assay, Table 6) is reported as “No”.
With C=C1CC(c2cccc3ccccc23)c2c(cc(OC)c(OC)c2OC)N1 (stereo not shown) [LDN-212350] the Active (reporter assay, Table 6) was “No/Weak”.
O=C1CC(c2cc(Br)ccc2F)c2c(ccc3ccccc23)N1 (stereo not shown) [LDN-212352] was tested, and the Active (reporter assay, Table 6) was “No”.
In the case of COc1cc2c(c(OC)c1OC)C(c1cc(F)ccc1F)CC(=O)N2 (stereo not shown) [LDN-212353], the Active (reporter assay, Table 6) is reported as “No/Weak”.
With COC1=CC2NC(=O)CC(c3cc([N+](=O)[O-])ccc3F)C2C(OC)=C1OC (stereo not shown) [LDN-212354] the Active (reporter assay, Table 6) was “No/Weak”.
COc1cc2c(c(OC)c1OC)C(c1cccc3ccccc13)CC(=O)N2 (stereo not shown) [LDN-212355] was tested, and the Active (reporter assay, Table 6) was “No/Weak”.
With COc1cc2c(c(OC)c1OC)C(c1cccc3ccccc13)CC(=O)N2 (stereo not shown) [LDN-212356] the EC50 [1] was 43000 nM, the Emax [2] was 150% and the Active (reporter assay, Table 6) was “Yes”.
For COc1cc2c(c(OC)c1OC)C(c1ccc3ccccc3c1)CC(=O)N2 (stereo not shown) [LDN-212357], the Active (reporter assay, Table 6) was “No”.
COC1=CC2NC(=O)CC(c3cc(C(N)O)ccc3F)C2C(OC)=C1OC (stereo not shown) [LDN-212358] was tested, and the Active (reporter assay, Table 6) was “No”.
COC1=C2C(=CC(OC)C1OC)NC(=O)CC2c1cc(NC(=O)c2ccccc2)ccc1F (stereo not shown) [LDN-212359] was tested, and the Active (reporter assay, Table 6) was “No”.
In the case of COC1=CC2NC(=O)CC(c3cc(NC(C)=O)ccc3F)C2C(OC)=C1OC (stereo not shown) [LDN-212360], the Active (reporter assay, Table 6) is reported as “No”.
COc1cc2c(c(OC)c1OC)C(c1cc(C=N)ccc1F)CC(=O)N2 (stereo not shown) [LDN-212361] was tested, and the Active (reporter assay, Table 6) was “No”.
With CCOC(=O)C1C(=O)Nc2cc(OC)c(OC)c(OC)c2C1c1cc(Cl)ccc1F (stereo not shown) [LDN-212388] the Active (reporter assay, Table 6) was “No”.
In the case of COc1cc2c(c(OC)c1OC)C(c1coc3ccccc13)CC(=O)N2 (stereo not shown) [LDN-212389], the Active (reporter assay, Table 6) is reported as “No/Weak”.
In the case of COc1cc2c(c(OC)c1OC)C(c1cccnc1Cl)CC(=O)N2 (stereo not shown) [LDN-212390], the Active (reporter assay, Table 6) is reported as “No”.
In the case of COc1cc2c(c(OC)c1OC)C(c1ccc(Cl)cn1)CC(=O)N2 (stereo not shown) [LDN-212392], the Active (reporter assay, Table 6) is reported as “No”.
With COc1cc2c(c(OC)c1OC)C(c1ccnc(Cl)c1)CC(=O)N2 (stereo not shown) [LDN-212393] the Active (reporter assay, Table 6) was “No/Weak”.
With CC(C)(O)c1sc(NC(=O)C2CCC(F)C(Cl)C2)nc1C(F)(F)F (stereo not shown) [LDN-213766] the Active (reporter assay, Table 6) was “No”.
In the case of COc1cc2c(c(OC)c1OC)C(c1cc(Cl)ccc1F)NC(=O)N2 (stereo not shown) [LDN-213767], the Active (reporter assay, Table 6) is reported as “Yes”, the “Max % Activity” value (reporter assay, Table 6) is reported as 125% and the EC50 (reporter assay, Table 6, read-out: Ec50) is reported as 8400 nM.
For COc1cc2c(c(OC)c1OC)C(c1cc(Cl)ccc1F)OC(=O)N2 (stereo not shown) [LDN-213768], the EC50 [1] was 5900 nM, the Emax [2] was 150% and the Active (reporter assay, Table 6) was “Yes”.
For COc1cc2c(c(OC)c1OC)C(c1cc(Cl)ccc1F)CC(=O)N2 (stereo not shown) [LDN-213769], the Active (reporter assay, Table 6) was “No”.
For COc1cc2c(c(OC)c1OCCN1CCOCC1)C(c1cc(Cl)ccc1F)CC(=O)N2 (stereo not shown) [LDN-213770], the Active (reporter assay, Table 6) was “No”.
In the case of COc1cc2c(c(OC)c1OCCO)C(c1cc(Cl)ccc1F)CC(=O)N2 (stereo not shown) [LDN-213771], the Active (reporter assay, Table 6) is reported as “No”.
With COCCOc1c(OC)cc2c(c1OC)C(c1cc(Cl)ccc1F)CC(=O)N2 (stereo not shown) [LDN-213772] the Active (reporter assay, Table 6) was “No”.
In the case of COc1cc2c(c(OC)c1OC)C(c1cc(Cl)ccc1F)C(C)C(=O)N2 (stereo not shown) [LDN-213773], the Active (reporter assay, Table 6) is reported as “No”.
With COc1cc2c(c(OC)c1OC)C(c1cc(Cl)ccc1F)C(C)C(=O)N2 (stereo not shown) [LDN-214085] the EC50 [1] was 6000 nM, the Emax [2] was 180% and the Active (reporter assay, Table 6) was “Yes”.
In the case of CC(C)(C)c1cc(NC(=O)c2nc3ccccc3[nH]2)no1 [LDN-214095], the Active (reporter assay, Table 6) is reported as “No”.
CCCC1C(=O)Nc2cc(OC)c(OC)c(OC)c2C1c1cc(Cl)ccc1F (stereo not shown) [LDN-214096] was tested, and the Active (reporter assay, Table 6) was “No”.
With COc1cc2c(c(OC)c1OC)C(c1cc(Cl)ccc1F)N(CCN(C)C)C(=O)N2 (stereo not shown) [LDN-214097] the Active (reporter assay, Table 6) was “No”.
In the case of NC[C@H]1O[C@H](O[C@H]2[C@H](O)[C@@H](O[C@H]3O[C@H](CO)[C@@H](O)[C@H](N)[C@H]3O)[C@H](N)C[C@@H]2N)[C@H](N)C[C@@H]1O [Tobramycin, tobramycin, reference compound], the “response of luciferase activity in the reporter cell lines” value (SMN1-luc and SMN2-luc cell lines, words) is reported as “no response”, the Max. fold increase is reported as “inactive ^a” and the EC50 (cell-based reporter, result in words) is reported as “inactive ^a”.
With CC(/C=C/C(=O)NO)=C\[C@@H](C)C(=O)c1ccc(N(C)C)cc1 [Trichostatin A, trichostatin A, reference compound] the Max. fold increase was 15 fold and the EC50 (cell-based reporter, known SMN2 modulating compounds, read-out: EC50) was 230 nM.
